Article PMC7168207, “Dibasic Derivatives of Phenylcarbamic Acid as Prospective Antibacterial Agents Interacting with Cytoplasmic Membrane” (Antibiotics, 2020)

Experiments:
Assay in all cases: synergy with antibiotics (FIC index, checkerboard)
Assay type in all cases: cell-based, Enterococcus faecalis
VRE 368 = settings: Enterococcus, VRE, VRE 368; tested compound/antibiotic; read-out: MIC of each antibacterial drug alone observed in the synergy experiment
From the text: (§1) Representatives from various classes were chosen in order to study the potential difference in synergistic activity according to the diverse mechanisms of action and resistance of these drugs. The method of minimal fractional inhibitory concentration (FIC) index (FICI) in a microtitration plate was used. FICI ≤ 0.5 means synergy; 0.5 < FICI < 1 means additivity; 1 ≤ FICI < 4 means indifference; and FICI ≥ 4 means antagonism.
(§2) For synergy effect study, a method of fractional inhibitory concentration was used. […] Raw H was used for the evaluation of MIC(A); column 12 was used for evaluation of MIC(B). The plate was inoculated by the bacterial suspension to reach final concentration of 5 × 10^5 CFU/mL in the wells. The fractional inhibitory concentration (FIC) index was calculated using the concentrations in the first nonturbid (clear) well found in each row and column along the turbidity/nonturbidity interface. To interpret the combined effect, the lowest FICI was used. A ΣFIC ≤ 0.5 means synergy; 0.5 < ΣFIC < 1 means additivity; 1 ≤ ΣFIC < 4 means indifference; and ΣFIC ≥ 4 means antagonism. The tests were made in duplicate, and the results were averaged.

VRE 342B = settings: VRE 342B
From the text: as §1, §2

VRE 725B = settings: Enterococcus
From the text: as §1
The used VRE strains were isolated from American crows by Oravcova et al., and their genetic profiles were characterized. All the VRE strains were carrying genes vanA, tetM, and ermB. Strains VRE 368 and VRE 725B carried gene aac, which provided acquired aminoglycoside resistance.
as §2

- MIC (VRE 368): 64 µg/mL
- MIC (VRE 342B; Enterococcus, tested compound/antibiotic, read-out: MIC of each antibacterial drug alone observed in the synergy experiment): 32 µg/mL
- MIC (VRE 725B): > 2000 µg/mL
SMILES: CNC(C)C1CCC(N)C(OC2C(N)CC(N)C(OC3OCC(C)(O)C(NC)C3O)C2O)O1 (stereo not shown) [GEN, gentamicin, reference compound]
- concentrations of the tested compound/clinically used antibiotic providing additivity or synergy (VRE 342B; in the combination of that line): 8 µg/mL
